Measured values: US8871781B2, “Methods and compositions for treating a subject for a lymphatic malformation” (The Board of Trustees of the Leland Stanford Junior …, priority 2011, dated 2014)
Entries after “also recorded” stand apart in the source; their conditions may differ.

Columns and labels:
Assay type in all cases: in vivo, human
[1] = system: lymphatic malformations; assay: Pilot study: sildenafil for 12 weeks in two children with disabling LMs
Experimental: Based on the observation of marked regression in a lymphatic malformation after starting sildenafil, a pilot study to treat otherwise healthy children with LMs with sildenafil was approved by the Stanford University Human Research Protection Program (IRB). After informed consent was obtained, sildenafil (goal dose 1.0 mg/kg/dose TID) was administered to two children with disabling LMs for 12 weeks, and results are summarized in Table 1.

[2] = system: lymphatic malformation; assay: Clinical trial: MRI before and after 20 weeks of sildenafil; settings: for volume of the lymphatic malformation after 20 weeks: MRI; for decrease of the volume of the lymphatic malformation: over 20 weeks
Experimental: An additional 7 subjects were enrolled into a clinical trial. Sildenafil was administered substantially as described above in Examples 1-2. […] Three subjects completed the 20 week trial and had the follow up MRI completed; the remaining four subjects are still undergoing the trial.

[3] = system: lymphatic malformation; assay: Index patient: infant with microcystic venolymphatic malformation given sildenafil for pulmonary hypertension
Text: FIG. 1, Panels A-B depict pre- and post-treatment magnetic resonance imaging (MRI) contrast-enhanced images of a subject with a lymphatic malformation treated in accord with the subject methods. […] Contrast highlights the heart with right ventricular enlargement (dashed arrow), aorta, and pulmonary vessels.
An infant was born with massive enlargement of their right chest and arm. […], the infant developed tachypnea due to congestive heart failure and pulmonary edema. […] At 9 months, cardiac catheterization confirmed the diagnosis of idiopathic pulmonary hypertension and sildenafil was started (initially 0.5 mg/kg/dose TID and titrated to 0.75 mg/kg/dose TID). […] The post-MRI course was complicated by worsening cardiopulmonary interactions, respiratory failure and subsequent cardiac failure leading to their death.

[4] = Subject 1, LM of left orbit, upper and lower eyelids
[5] = Subject 2, LM of right axilla, after 12 weeks of treatment (FIG. 3, Panel B)
[6] = Subject 2, LM of right axilla, chest
[7] = Subject 2, LM of right upper back

CCCc1nn(C)c2c(=O)[nH]c(-c3cc(S(=O)(=O)N4CCN(C)CC4)ccc3OCC)nc12 [sildenafil]
change of the lesion after stopping the medication ([1]; Subject 1): enlargement of the lesion | Adverse effects ([1]; Subject 1, 12 weeks of therapy): Loose yellow | clinical change of eyelid LM ([1]; Subject 1, after 3 weeks of therapy): improved eye opening and definition of the upper eyelid fold and superior palpebral sulcus | improvement of LM ([1]; Subject 1, at the end of treatment (12 weeks)): 25% | Change in LM 4 weeks after discontinuing therapy [1, 4]: Enlargement | Parent impression of change in LM after 12 weeks of therapy [1, 4]: Fair | Adverse effects ([1]; Subject 2, 12 weeks of therapy): None | consistency of the lesion [1, 5]: softer and saggier | reduction in diameter of the lesion [1, 5]: 1 cm | improvement of LMs ([1]; Subject 2, after 8 weeks of treatment): 50% | improvement of LMs ([1]; Subject 2, after 12 weeks of treatment): 75% | appearance of the large LM affecting the back ([1]; Subject 2, at the 12 week visit (FIG. 2, Panel C)): appeared deflated | change of the LMs after stopping the medication ([1]; Subject 2, four weeks after stopping (FIG. 2, Panel D)): mild enlargement | Change in LM 4 weeks after discontinuing therapy ([1]; Subject 2, LM of left forearm): Stable | Parent impression of change in LM after 12 weeks of therapy ([1]; Subject 2, LM of left forearm): Good | Change in LM 4 weeks after discontinuing therapy [1, 6]: Stable | Parent impression of change in LM after 12 weeks of therapy [1, 6]: Good | Change in LM 4 weeks after discontinuing therapy [1, 7]: Enlargement | Parent impression of change in LM after 12 weeks of therapy [1, 7]: Good | tolerability ([1]; two children, 12 weeks, goal dose 1.0 mg/kg/dose TID): tolerated without significant adverse effects | adverse events associated with the medication ([2]; 20 week trial): no adverse events | volume of the lymphatic malformation after 20 weeks ([2]; first subject evaluated, 186 cc before sildenafil): 174 cc | decrease of the volume of the lymphatic malformation ([2]; first subject evaluated, 186 cc to 174 cc): 6.45% | volume of the lymphatic malformation after 20 weeks ([2]; second subject evaluated, 46.5 cc before sildenafil): 42.7 cc | decrease of the volume of the lymphatic malformation ([2]; second subject evaluated, 46.5 cc to 42.7 cc): 8.17% | volume of the lymphatic malformation after 20 weeks ([2]; third subject evaluated, 56.246 cc before sildenafil): 51.732 cc | decrease of the volume of the lymphatic malformation ([2]; third subject evaluated, 56.246 cc to 51.732 cc): 8.03% | MRI finding of the malformation after therapy ([3]; cardiac MRI (FIG. 1, Panel B)): minimal residual lymphatic malformation; also recorded: near complete resolution of the malformation | role of sildenafil in the patient's death ([3]; death from respiratory and cardiac failure): not thought to play a role in their death | skin examination of the malformation ([3]; four months after starting sildenafil): thin, bluish plaque and redundant tissue | change in size of the malformation ([3]; sildenafil, 0.5 titrated to 0.75 mg/kg/dose TID): gradually decreased in size
